In patent US20050256034A1, “Dioxolane analogs for improved inter-cellular delivery” (priority 2000, published 2005):

Key:
CEM cells = assay: CellTiter 96 cell proliferation assay, 48 h exposure; format: cell-based; details: Homo sapiens, CCRF-CEM, 48 h, read-out: Chemosensitivity, 50% of the dose response curve (EC50), CEM + NBMPR (100 nM), 48 h exposure, mean ± SD
Protocol: The chemosensitivity of suspension cells lines (e.g., CEM or CEM-derivatives) is assessed using the CellTiter 96 ? proliferation assay. […] Chemosensitivity is expressed as 50% (ECso) of the dose response curve determined, e.g., using GraphPad Prism 2.01 (GraphPad Software, San Diego, Calif.). Adherent cell lines (e.g., DU145 or DU145^R) are seeded (˜10^5 cells) in triplicate dishes, 24 h before drug exposure. Growth inhibition is determined by trypsinization and counting cells electronically.

hCNT3 = target: T1, hCNT3 (Homo sapiens, UniProt Q9HAS3); assay: Inhibition of [3H]uridine uptake by cib-activity in differentiated HL-60 cells; format: cell-based; details: 100-fold non-radioactive excess
T1 construct: Troxacitabine uptake by cib-activity (hCNT3) in differentiated HL-60 cells; endogenous in cells; host or cells: differentiated HL-60 cells
T1 sequence (Q9HAS3 1-691): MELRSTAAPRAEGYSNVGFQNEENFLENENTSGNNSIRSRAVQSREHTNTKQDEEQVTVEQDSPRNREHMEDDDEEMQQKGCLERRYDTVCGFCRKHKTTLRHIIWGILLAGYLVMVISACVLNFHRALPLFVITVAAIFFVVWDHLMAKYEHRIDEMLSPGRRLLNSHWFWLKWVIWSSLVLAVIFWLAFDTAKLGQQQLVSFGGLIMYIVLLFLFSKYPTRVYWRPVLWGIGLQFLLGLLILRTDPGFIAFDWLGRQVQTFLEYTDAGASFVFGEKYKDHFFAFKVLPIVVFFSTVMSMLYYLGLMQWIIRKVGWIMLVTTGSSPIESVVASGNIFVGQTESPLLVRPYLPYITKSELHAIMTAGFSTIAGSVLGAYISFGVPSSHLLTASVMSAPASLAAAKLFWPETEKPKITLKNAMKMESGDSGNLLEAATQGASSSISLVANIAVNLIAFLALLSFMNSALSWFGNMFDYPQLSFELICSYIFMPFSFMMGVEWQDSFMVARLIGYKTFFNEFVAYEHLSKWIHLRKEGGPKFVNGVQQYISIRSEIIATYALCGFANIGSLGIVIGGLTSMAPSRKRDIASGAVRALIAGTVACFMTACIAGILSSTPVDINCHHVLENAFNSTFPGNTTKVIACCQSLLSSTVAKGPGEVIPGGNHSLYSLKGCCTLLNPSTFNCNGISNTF

effect on [3H]uridine uptake by hCNT3 (hCNT3): no effect on uridine uptake
Structure (SMILES): Nc1ccn([C@@H]2CO[C@H](CO)O2)c(=O)n1 [Troxacitabine, troxacitabine]
EC50 (CEM cells): 0.21 ± 0.019 µM
